This assay is filed under the species Rattus norvegicus. The assay is described as follows: In vitro metabolism of radiolabeled compound at 10 uM was performed in rat microsomal protein containing a NADPH-regenerating system for 1 hr at 37 degree C. In kind it is functional.

Our source for the Covalent binding values is ChEMBL document CHEMBL1134861, “Improving metabolic stability of phosphodiesterase-4 inhibitors containing a substituted catechol: prevention of reactive intermediate formation and covalent binding” (Bioorg Med Chem Lett, 2002).

As to `[O-][n+]1ccc(CC(c2ccc(C(O)(C(F)(F)F)C(F)(F)F)cc2)c2ccc(OC(F)F)c(OC(F)F)c2)cc1` (stereo not given), the Covalent binding was below 0.05%.
The same measure, in the same setting: under `Cc1cncc(C)c1CC(c1ccc(C(O)(C(F)(F)F)C(F)(F)F)cc1)c1ccc(OCF)c(OC(F)F)c1` (stereo not given) stands below 0.05%; under `Cc1cncc(C)c1CC(c1ccc(C(O)(C(F)(F)F)C(F)(F)F)cc1)c1ccc(OCF)c(OC2CCC2)c1` (stereo not given), 0.45%.
As for `COc1ccc([C@H](Cc2ccncc2)c2ccc(C(O)(C(F)(F)F)C(F)(F)F)cc2)cc1OC1CCCC1`, the Covalent binding (tested as the 3H-labelled form) was determined as 3.1%.
The molecule `COc1ccc(C(Cc2c(C)cncc2C)c2ccc(C(O)(C(F)(F)F)C(F)(F)F)cc2)cc1OC1CCCC1` (stereo not given) displayed a Covalent binding of 2.9%.
